Molecules are shown by their SMILES.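 Step 1: Grow cells in 96-well plates. Step 2: Expose to compound for 48 hours at 5 concentrations. Step 3: Interpolate endpoints linearly; if unreached, use highest concentration. The concentration for 50% growth inhibition is given as GI50.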 Calls of active or inactive are those of the source. Cut-off read from the data, not from the text of the source: active = GI50 up to about 1.1 µM and inactive = higher.

Some test systems named below: SNB-75; LOX IMVI; OVCAR-3; EKVX; M14; DU-145; MDA-MB-435; SNB-19; UACC-62; HT-29; OVCAR-8; SF-295; UO-31; SN12C; SF-268; MCF7; HCT-15; HOP-92; U-251; Malme-3M.
Holding throughout (assay): growth of human tumour cells (NCI), 48 h

Take `CCc1nc(N)c2nc(-c3ccc(C#N)cc3)oc2n1`: the GI50 in the assay on SNB-75, with LOX IMVI, with OVCAR-3, with EKVX, in the assay with M14 and in the assay on DU-145 was > 100 µM (inactive) each time. Besides, the GI50 with MDA-MB-435, in the assay with SNB-19, in the assay with UACC-62, in the assay on HT-29, with OVCAR-8 and in the assay with SF-295 was > 100 µM (inactive) each time. For the same compound, the GI50 with UO-31 is > 100 µM (inactive); in the assay with SN12C, > 100 µM (inactive); with SF-268, > 100 µM (inactive); with MCF7, > 100 µM (inactive); with HCT-15, > 100 µM; with HOP-92, > 100 µM (inactive).
Consider `CCCC(C(=O)Nc1cccc2nc[nH]c12)C(=O)OCC` (configuration not stated), for which the GI50 with SNB-75 was > 100 µM (inactive); in the assay with LOX IMVI, > 100 µM (inactive); in the assay with OVCAR-3, 67.8 µM (inactive); in the assay on EKVX, > 100 µM (inactive); in the assay with M14 it was > 100 µM (inactive); in the assay on DU-145 it was > 100 µM (inactive). Also, the GI50 in the assay with MDA-MB-435, in the assay on SNB-19, in the assay with UACC-62, in the assay with HT-29, in the assay on OVCAR-8 and in the assay with SF-295 was > 100 µM (inactive) throughout. Besides, the GI50 is > 100 µM (inactive) with UO-31; > 100 µM (inactive) in the assay on U-251; > 100 µM (inactive) in the assay on SN12C; > 100 µM (inactive) in the assay on SF-268; > 100 µM (inactive) in the assay on MCF7; > 100 µM in the assay on HCT-15. In the assay on HOP-92, the GI50 is > 100 µM (inactive).
Regarding `CCOP(=O)(OCC)C(C)(CC)N/C(N)=N/C#N` (configuration not stated), the GI50 in the assay with SNB-75, in the assay on LOX IMVI, with OVCAR-3, in the assay on EKVX, with M14 and in the assay with DU-145 was > 100 µM (inactive) in each case. Further, the GI50 in the assay on MDA-MB-435, in the assay on SNB-19, with UACC-62, in the assay with HT-29, in the assay with OVCAR-8 and in the assay with SF-295 was > 100 µM (inactive) in each case. Besides, the GI50 with UO-31, with Malme-3M, in the assay with U-251, in the assay with SN12C, in the assay on SF-268 and with MCF7 was > 100 µM (inactive) in each case. Besides, the GI50 in the assay on HCT-15 is > 100 µM.
Regarding `NC(CCCCCP(=O)(c1ccccc1)C1C=CC=CC1)C(=O)O` (configuration not stated), the GI50 in the assay on SNB-75, in the assay on LOX IMVI, in the assay on OVCAR-3, in the assay on EKVX, in the assay with M14 and in the assay with DU-145 was > 100 µM (inactive) in each case. The GI50 in the assay with MDA-MB-435 was > 100 µM (inactive); in the assay on SNB-19, > 100 µM (inactive); with UACC-62, 51.2 µM (inactive); with HT-29 it was > 100 µM (inactive); with OVCAR-8, > 100 µM (inactive); with SF-295, > 100 µM (inactive). Besides, the GI50 with UO-31 is > 100 µM (inactive); with U-251 it was > 100 µM (inactive); with SN12C it was > 100 µM (inactive); in the assay on SF-268 it was > 100 µM (inactive); in the assay with MCF7 it was > 100 µM (inactive); with HCT-15 it was > 100 µM. In addition, the GI50 in the assay on HOP-92 is > 100 µM (inactive).
For the compound `CC1(C)OC2OC(C(=O)c3ccccc3)C3OC(C)(C)OC3C2O1` (configuration not stated), the GI50 with SNB-75, in the assay on LOX IMVI, in the assay on OVCAR-3, in the assay with EKVX, in the assay on M14 and with DU-145 was > 100 µM (inactive) each time. Further, the GI50 in the assay with MDA-MB-435, in the assay with SNB-19, in the assay on UACC-62, in the assay with OVCAR-8, in the assay on SF-295 and in the assay with UO-31 was > 100 µM (inactive) in each case. Moreover, the GI50 with U-251 was > 100 µM (inactive); in the assay on SN12C it was > 100 µM (inactive); with SF-268, > 100 µM (inactive); in the assay with MCF7, > 100 µM (inactive); in the assay with HCT-15 it was > 100 µM; in the assay on HOP-92 it was > 100 µM (inactive).
As for `C=CCN1C(=O)/C(=C/c2ccco2)N=C1SC1OC(COC(C)=O)C(OC(C)=O)C(OC(C)=O)C1OC(C)=O` (configuration not stated), the GI50 was > 100 µM (inactive) with SNB-75; > 100 µM (inactive) with LOX IMVI; > 100 µM (inactive) in the assay with OVCAR-3; > 100 µM (inactive) in the assay on EKVX; 80.2 µM (inactive) in the assay on DU-145; > 100 µM (inactive) in the assay on MDA-MB-435. Moreover, the GI50 in the assay on UACC-62 is 83.9 µM (inactive); with OVCAR-8, > 100 µM (inactive); with SF-295, > 100 µM (inactive); in the assay with Malme-3M it was 89.5 µM (inactive); with U-251 it was > 100 µM (inactive); in the assay with MCF7 it was 62.5 µM (inactive). The values for the GI50 in the assay with HCT-15 and with HOP-92 were 88.1 µM and 72.9 µM (inactive), respectively.
For the compound `COc1ccc(-c2c(C(C)=O)c(C)n(C3OC(CO)C(O)C(O)C3O)c(=S)c2C#N)cc1` (configuration not stated), the GI50 with SNB-75 was 80.9 µM (inactive); in the assay on LOX IMVI it was 45.5 µM (inactive); in the assay on OVCAR-3 it was > 100 µM (inactive); in the assay with EKVX, 55.1 µM (inactive); with M14, 60.1 µM (inactive); in the assay with DU-145, > 100 µM (inactive). For the same compound, the GI50 was 72.6 µM (inactive) in the assay on MDA-MB-435; 19.5 µM (inactive) with SNB-19; 28 µM (inactive) in the assay with UACC-62; > 100 µM (inactive) with HT-29; 58.2 µM (inactive) with OVCAR-8; 72.9 µM (inactive) in the assay on SF-295. For the same compound, the GI50 in the assay on UO-31 was > 100 µM (inactive); in the assay on Malme-3M, 70.5 µM (inactive); in the assay on U-251, 47 µM (inactive); in the assay on SN12C, 50.6 µM (inactive); in the assay with SF-268, > 100 µM (inactive); in the assay with MCF7, > 100 µM (inactive). Besides, in the assay with HCT-15, the GI50 is > 100 µM.
With `COC(=O)CNCC1OC2OC(C)(C)OC2C1N=[N+]=[N-]` (configuration not stated), the GI50 with SNB-75, with LOX IMVI, with OVCAR-3, with EKVX, with DU-145 and with MDA-MB-435 was > 100 µM (inactive) in each case. The GI50 in the assay on SNB-19, in the assay on UACC-62, in the assay with HT-29, in the assay on OVCAR-8, in the assay with SF-295 and in the assay with UO-31 was > 100 µM (inactive) throughout. The GI50 was > 100 µM (inactive) in the assay on U-251; > 100 µM (inactive) in the assay with SN12C; > 100 µM (inactive) in the assay on MCF7; > 100 µM with HCT-15; > 100 µM (inactive) with HOP-92.
For the compound `CCCCCCCCC/C=C1\CC(CO)(COC(=O)c2ccccc2)OC1=O` (configuration not stated), the GI50 in the assay on SNB-75 was 15.9 µM (inactive); in the assay on OVCAR-3, 22.4 µM (inactive); with EKVX it was 15.3 µM (inactive); with M14, 17.8 µM (inactive); in the assay on DU-145 it was 29.1 µM (inactive); in the assay on MDA-MB-435, 16 µM (inactive). Also, the GI50 in the assay with SNB-19 is 20.9 µM (inactive); in the assay with UACC-62, 25.4 µM (inactive); with HT-29 it was 19.1 µM (inactive); in the assay on SF-295, 21.2 µM (inactive); in the assay with UO-31, 16.3 µM (inactive); with Malme-3M, 14.5 µM (inactive). Moreover, the GI50 with U-251 was 21.1 µM (inactive); in the assay on SN12C, 19.2 µM (inactive); in the assay with SF-268 it was 22.7 µM (inactive); with MCF7, 23.8 µM (inactive); in the assay on HCT-15 it was 20.7 µM; with HOP-92, 9.82 µM (inactive).
In the case of `CC(CC(C)[C@H]1CCC2[C@H]3C(CC[C@@]21C)[C@@]1(C)CCC(O)C[C@H]1C[C@@H]3O)C(=O)O` (some centres not stated), the GI50 in the assay with SNB-75, in the assay with LOX IMVI, with EKVX, in the assay on M14, with DU-145 and in the assay on MDA-MB-435 was > 100 µM (inactive) throughout. Besides, the GI50 in the assay on SNB-19 was > 100 µM (inactive); in the assay on UACC-62, > 100 µM (inactive); with HT-29 it was > 100 µM (inactive); with OVCAR-8, > 100 µM (inactive); in the assay on UO-31, 66.2 µM (inactive); with Malme-3M, > 100 µM (inactive). Moreover, the GI50 was > 100 µM (inactive) with U-251; > 100 µM (inactive) in the assay on SN12C; > 100 µM (inactive) with SF-268; > 100 µM (inactive) in the assay on MCF7; > 100 µM in the assay on HCT-15; > 100 µM (inactive) in the assay with HOP-92.
Consider `c1ccc2c(c1)[nH]c1c2cc[n+]2cc3c(cc12)CCCC3`, for which the GI50 with SNB-75 was 5.96 µM (inactive); with LOX IMVI it was 2.39 µM (inactive); with OVCAR-3, 1.16 µM (inactive); with EKVX, 4.89 µM (inactive); in the assay with M14 it was 2.3 µM (inactive); with DU-145, 2.69 µM (inactive). The GI50 in the assay with MDA-MB-435 was 1.91 µM (inactive); with SNB-19 it was 3 µM (inactive); with HT-29, 3.28 µM (inactive); in the assay on OVCAR-8, 2.42 µM (inactive); with SF-295, 3.18 µM (inactive); with UO-31 it was 16.3 µM (inactive). The GI50 is 2.51 µM (inactive) with U-251; 2.61 µM (inactive) with SN12C; 2.93 µM (inactive) with SF-268; 2.13 µM (inactive) with MCF7; 10.5 µM in the assay on HCT-15; 3.25 µM (inactive) in the assay on HOP-92.

Values taken from ChEMBL document CHEMBL1201862, “PubChem BioAssay data set” (2004).
